Entries after “also recorded” stand apart in the source; their conditions may differ. Where two headings read alike, the source gives them in different places.

One test deals with DRG explant neurons. The experiment in a line: in vitro Wallerian degeneration assay: DRG explant cultures, axonal transection by removal of neuronal cell bodies. The class given is cell-based, mouse. To be noted: for effect on NAD-dependent axonal protection (NDAP): neurons cultured in 1 mM NAD, Sirtinol 100 μM, 3AB 20 mM or lentiviral siRNA, assessed 12 to 72 hr after transection; for increase in intact neurites at 48 hours after transection: 1 mM exogenous application; for neurite protection from degeneration: 1 mM in culture media for 24 hours before neurite transection. As to the method:
To identify the mechanism of delayed axonal degeneration mediated by the Wld^s protein, we employed an in-vitro Wallerian degeneration model. Primary DRG explant neurons were infected with lentivirus expressing the appropriate proteins, and axons were injured by either removal of the neuronal cell body (transection) or growth in vincristine (toxic).
Mouse DRG explants from E12.5 embryos were cultured in the presence of 1 nM nerve growth factor. Non-neuronal cells were removed from the cultures by adding 5-fluorouracil to the culture medium. Transection of neurites was performed at 10-20 DIV using an 18-gauge needle to remove the neuronal cell bodies. Incubation with β-nicotinamide adenine dinucleotide (Sigma) or Sirtinol (Calbiochem) was performed using conditions indicated in the text or figures.
Lentiviral expression vectors were generated using HEK293T cells as described above. For confirmation of lentivirus-derived protein expression, HEK293T cells were infected with lentivirus and cells were lysed 3 days after infection. These lysates were analyzed by immunoblot to using anti-His tag monoclonal antibody (Qiagen) to detect expression of the respective hexahistidine-tagged proteins. Lentiviral infection of DRG neurons was performed by incubating ˜10^6-10^7 pfu/ml virus with the DRG explant for 24 h beginning 3-7 days prior to axonal transection. The infected neurons were examined under an inverted fluorescent microscope to insure detectable lentivirus-mediated transgene expression in >95% of neurons.
Quantitative analysis of axonal degeneration was performed as previously described (Zhai, et al., Neuron 39:217-25, 2003). Briefly, the cultures were examined using phase contrast microscopy at the indicated times. Axons with a fragmented, non-refractile appearance were designated as “degenerated.” At each time point, at least 200 singly distinguishable axons were blindly scored from several randomly taken images of each culture. Each condition was tested in triplicate explants in each experiment. Results were obtained from 2-4 independent experiments for each condition. Statistical analysis was performed by Student's T test. For calculations of neurite-covered area, digitally captured images from quadruplicate samples of two independent experiments were analyzed using analysis 3.1 software (Soft Imaging System, Lakewood, Colo.).
Cell culture, in vitro axotomy, and quantification of axonal degeneration. Mouse DRG explants from E12.5 embryos were cultured in the DMEM containing 10% FCS and 1 nM nerve growth factor. Non-neuronal cells were removed from the cultures by adding 5-fluorouracil to the culture media. Transection of neurites was performed at 14-21 DIV using an 18-gauge needle to remove the neuronal cell bodies. Lentiviral expression vectors were generated. Lentiviral infection was performed 3-7 days prior to axonal transection for 24 hr. Quantitative analysis of neurite degeneration was performed.

In test [1] the test system is optic nerve (retinal ganglion cell axons). The experiment in a line: optic nerve transection after intravitreal injection of NAD biosynthetic substrates, neurofilament immunoreactivity by Western blotting. It is filed as in vivo, rat. Conditions: 24 hours before transection, 4 days after transection. As to the method:
Administration of NAD biosynthetic substrates and optic Nerve transection. Nam, NMN, NmR, or NAD was dissolved in PBS at the concentration of 100 mM or 1 M. Each of 5 μl solution was injected into left intravitreal component under the anesthesia at a rate of […]. The left optic nerve was transected at 24 hours after intravitreal injection and optic nerve was recovered at indicated time. Optic nerve tissue was homogenized in 100 μl of a buffer containing 100 mM tris-HCl (pH 6.8), 1 SDS, and 1 mM DTT. Fifty μg of protein for each sample was analyzed by the Western blotting using anti-neurofilament antibody 2H3 (Developmental Studies Hybridoma Center) and peroxidase-conjugated secondary antibody (Jackson ImmunoResearch). The degeneration rate was calculated from the ratio of the neurofilament immunoreactivity of transected vs. contralateral nerves.
Transection of optic nerve is an in vivo model which can be used to investigate mechanisms leading to Wallerian degeneration and following retinal ganglion cell (RGC) death observed in human diseases such as glaucoma. In the C57BL/Wlds mouse strain, optic nerve degeneration during Wallerian degeneration after axotomy is dramatically slowed. In addition, intravitreal injection is used for screening of compounds that protect RGC axon from degeneration in vivo and thus we can asses the axon protective effect of each NAD biosynthetic substrates in vivo by intraocular injection of compounds including NAD, NMN, NmR, and Nam. […] We initially injected 5 μl of 100 mM or 1 M NAD solution into left intravitreal compartment. After 24 hours incubation, left optic nerve was transected and control (right) and axotomized (left) optic nerve were collected at 3, 4, and 5 days after transection. Neurofilament immunoreactivity from the axotomized optic nerve was measured and normalized against the value obtained from the right side of the optic nerve.
FIG. 9 illustrates optic nerve transection after intravitreal injection of NAD biosynthetic substrates. In these experiments, NAD biosynthetic substrate NAD, NMN, NmR, or Nam was injected into the intravitreal compartment of a left rat eye and allowed to incorporate in retinal ganglion cells for 24 hours. The left optic nerve was then transected by eye enucleation. The right and left optic nerves were collected at 4 days after transection and analyzed by Western blotting. Optic nerves transected from mice without any treatment prior to axotomy served as negative controls. FIG. 9 presents quantitative analysis data, displaying percentage of remaining neurofilament immunoreactivity from transected optic nerve relative to non-transected controls. Data is presented as percent remaining immunoreactivity±S.D.
(In general: Immunoblotting shows a protein as a band on a membrane.)

Another test deals with Nrk2. The test is described as follows: NAD synthesis enzyme mRNA levels (qRT-PCR) in cultured DRG neurons treated with rotenone. The class given is cell-based, rat. To be noted: 0.1 μM and 1 μM rotenone, RNA collected at 24 hours. How it is done: Real-time quantitative reverse transcription-PCR analysis. All the surgical procedures were performed according to National Institute of Health guidelines for care and use of laboratory animals at Washington University. For the expression analysis following nerve injury, the sciatic nerves of a C57BL/6 mouse was transected and L4 to L5. DRGs were collected at indicated time points and pooled to extract RNA. […] Total RNAs from pooled tissue sources or DRG explant cultures were prepared. First-strand cDNA templates were prepared from 1 μg of each RNA using standard methods. Two independent cDNA syntheses were performed for each RNA sample. Quantitative reverse transcription (RT)-PCR was performed by monitoring in real-time the increase in fluorescence of the SYBR-GREEN dye on a TaqMan 7700 Sequence Detection System (Applied Biosystems).
To investigate the expression of mammalian NAD biosynthetic enzymes in the nervous system, we performed quantitative RT-PCR using RNA from mouse brain, retina, spinal code, and DRG at age of E14, P0, P7, P14 and P21. […] We also analyzed expression of NAD synthetic enzymes during the axonal degeneration caused by neurotoxin in cultured rat DRG neuron. […] FIG. 6B illustrates neurite degeneration introduced by incubation DRG in 1 or 0.1 μM rotenone for indicated time and NAD synthesis enzyme mRNA levels were determined by qRT-PCR as described in the text.

As to `NC(=O)c1cccc(N)c1` [3AB, 3-aminobenzamide, reference compound], the “effect on NAD-dependent axonal protection (NDAP)” value in the test on DRG explant neurons is given as “had no effect on NDAP”.
In the case of `NC(=O)c1ccc[n+]([C@@H]2O[C@H](COP(=O)([O-])OP(=O)(O)OC[C@H]3O[C@@H](n4cnc5c(N)ncnc54)[C@H](O)[C@@H]3O)[C@@H](O)[C@H]2O)c1` [NAD, β-nicotinamide adenine dinucleotide], the “neurofilament immunoreactivity of axotomized optic nerve, of non-axotomized optic nerve” value in test [1] (5 μl of 100 mM intravitreal) is given as 78±22%; in test [1] (5 μl of 1 M intravitreal), 77±27%.
Turning to `NC(=O)c1ccc[n+]([C@@H]2O[C@H](COP(=O)([O-])O)[C@@H](O)[C@H]2O)c1` [NMN, nicotinamide mononucleotide], in the test with DRG explant neurons, the “protection against axonal degeneration (summary statement of the in vitro study)” value (shortened to “protection against axonal degeneration”) was “have axon saving activity”, the “increase in intact neurites at 48 hours after transection” value (“increase in intact neurites at 48 hours” for short) is “comparable increase in intact neurites” and the “neurite protection from degeneration” value was “successfully saved neurites from degeneration; also recorded: enough to protect axon from degeneration”. The “neurite protection relative to exogenously applied NAD (quantitative analysis)” value in the test on DRG explant neurons (1 mM for 24 hours before transection) is reported as “neurite protection to an extent similar to that achieved by exogenously applied NAD”. For the same compound, the “protection against axonal degeneration” value in the test on DRG explant neurons (listed as nicotinamide mononucleotide) is “protected against axonal degeneration to a similar extent as did NAD”. For the same compound, in test [1] (5 μl of 100 mM intravitreal), the “neurofilament immunoreactivity of axotomized optic nerve, of non-axotomized optic nerve” value was 60±25%.
As for `O=C(O)c1cccnc1` [Na, nicotinic acid], in the test on DRG explant neurons, the “protection against axonal degeneration” value was “did not” and the “neurite protection from degeneration” value is listed as “failed to save neurites”.
As to `Nc1ncnc2c1ncn2[C@@H]1O[C@H](COP(=O)(O)OP(=O)(O)OC[C@H]2O[C@@H]([n+]3cccc(C(=O)O)c3)[C@H](O)[C@@H]2O)[C@@H](O)[C@H]1O` [NaAD, nicotinic acid adenine dinucleotide], in the test with DRG explant neurons, the “increase in intact neurites at 48 hours” value was “less increase in intact neurites at 48 hours compared with NAD” and the “neurite protection from degeneration” value is “slight protection”.
With `O=C(O)c1ccc[n+]([C@@H]2O[C@H](COP(=O)(O)O)[C@@H](O)[C@H]2O)c1` [NaMN, nicotinate mononucleotide], in the test on DRG explant neurons, the “protection against axonal degeneration” value is on record as “protected against axonal degeneration to a similar extent as did NAD”, the “increase in intact neurites at 48 hours” value is given as “comparable increase in intact neurites” and the “neurite protection from degeneration” value was “saved neurites as well as NAD”.
Take `NC(=O)c1cccnc1` [Nam, nicotinamide]: in the test on DRG explant neurons, the “protection against axonal degeneration” value is “does not” and the “neurite protection from degeneration” value was “had no effect”. In addition, the “protection against axonal degeneration” value in the test on DRG explant neurons (listed as nicotinamide) is “did not”. In addition, in test [1] (5 μl of 100 mM intravitreal), the “neurofilament immunoreactivity of axotomized optic nerve, of non-axotomized optic nerve” value is listed as “did not show any difference from the control animals”.
Consider `NC(=O)c1ccc[n+]([C@@H]2O[C@H](CO)[C@@H](O)[C@H]2O)c1` [NmR, nicotinamide riboside], for which, in the test on DRG explant neurons, the “protection against axonal degeneration” value is “have axon saving activity”, the “increase in intact neurites at 48 hours” value is “comparable increase in intact neurites” and the “neurite protection from degeneration” value was “saved neurites as well as NAD; also recorded: enough to protect axon from degeneration”. Also, the “protection against axonal degeneration” value in the test with DRG explant neurons (listed as nicotinamide riboside) is “protected against axonal degeneration to a similar extent as did NAD”. The “neurofilament immunoreactivity of axotomized optic nerve, of non-axotomized optic nerve” value in test [1] (5 μl of 100 mM intravitreal) is recorded as 72±19%.
For the compound `CC(NC(=O)c1ccccc1/N=C/c1c(O)ccc2ccccc12)c1ccccc1` (stereo not shown) [Sirtinol, reference compound], the “effect on NAD-dependent axonal protection (NDAP)” value in the test with DRG explant neurons is “effectively blocked NDAP”.
For the compound `Oc1ccc(C=Cc2cc(O)cc(O)c2)cc1` [resveratrol, reference compound], in the test with DRG explant neurons (10~100 μM, treated prior to axotomy), the “axonal degradation after axotomy” value was “decrease in axonal degradation that was comparable to that obtained using NAD”.
For the compound `C=C(C)[C@H]1Cc2c(ccc3c2O[C@@H]2COc4cc(OC)c(OC)cc4[C@@H]2C3=O)O1` [rotenone], in the test on Nrk2, the “expression of Nrk2 (mRNA)” value is listed as “more than 6 folds”.

(Values after patent US8889126B2, “Methods and compositions for treating neuropathies” (Washington University, priority 2004, dated 2014).)
